Results published in PMC11714206, “Massively Parallel Screening of Toll/Interleukin‐1 Receptor (TIR)‐Derived Peptides Reveals Multiple Toll‐Like Receptors (TLRs)‐Targeting Immunomodulatory Peptides” (Advanced Science, 2024).
“And” between values parts separate entries of the source, which are not always exact repeats. Identical values can stand only once.

Molecular target: T1, MAL^TIR (Homo sapiens, UniProt P58753)
T1 construct: MAL (residues 79–221); 6xHis; made in house; host or cells: E. coli BL21 (DE3)
T1 sequence (P58753 79-221): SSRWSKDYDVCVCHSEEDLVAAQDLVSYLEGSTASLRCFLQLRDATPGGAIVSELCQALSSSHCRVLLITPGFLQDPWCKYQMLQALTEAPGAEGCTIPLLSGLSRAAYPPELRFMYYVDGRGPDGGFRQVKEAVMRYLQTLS
Assay: T‐Surf phage library (P8 and P3) selection against MAL^TIR, four rounds, NGS read counts
Format: binding
Settings: for P3_MAL Rank (after) / P3_MAL Rank (before): P3 library; for P8_MAL Rank (after) / P8_MAL Rank (before): P8 library; for Population: 4th round of selection against MAL TIR, share of NGS reads
Method in brief: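 Four panning rounds on TIR domain adsorbed at 5 µg mL^−1; binding 1 h at 20–22 °C, elution with 100 mM HCl. Output: NGS read counts of round‐4 pools versus naïve library.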

[1] = selection against MAL TIR, rank by count after grouping
[2] = selection against MAL TIR, rank by count before grouping
[3] = P8_MAL: rank by count after grouping
[4] = P8_MAL: rank by count before grouping
[5] = selection against MAL, rank after grouping
[6] = selection against MAL, rank before grouping
[7] = selection against MAL, rank by count after grouping
[8] = selection against MAL, rank by count before grouping
[9] = P3_MAL pool: P3 T-Surf phage library
[10] = P8_MAL pool: P8 T-Surf phage library
[11] = P3_MAL: rank by count after grouping
[12] = P3_MAL: rank by count before grouping
[13] = 4R selection against MAL, rank after grouping
[14] = 4R selection against MAL, rank before grouping

## NNLFNALVSKNIRTFM
[1]
  P3_MAL Rank (after): 258
[2]
  P3_MAL Rank (before): 3481

## SSFCEGLWRLLELSTK
[1]
  P3_MAL Rank (after): 234
[2]
  P3_MAL Rank (before): 3122

## AFLYTFLKNLMRKPTF
[3]
  Rank (after): 422
[4]
  Rank (before): 1874

## RGFLSHLRHHLPAKDQ
[5]
  P3_MAL Rank (after): 498
[6]
  P3_MAL Rank (before): 2380

## AFMYTFLINLTHPNNF
[7]
  P8_MAL Rank (after): 681
[8]
  P8_MAL Rank (before): 1923

## NAFTGHLHRYLVQRGV
[9]
  Population: 0.00488%

## ALCWAQLKIVLANLPI
[1]
  P8_MAL Rank (after): 271
[2]
  P8_MAL Rank (before): 1926

## TFLGHLYNTLVQASIF
[3]
  Rank (after): 391
[4]
  Rank (before): 2537

## GCLYQAFARAGFKIFM
[7]
  P3_MAL Rank (after): 707
[8]
  P3_MAL Rank (before): 1752

## SLQYAHLRWLGIRAFL
[1]
  P8_MAL Rank (after): 206
[2]
  P8_MAL Rank (before): 2523

## TFLGHLYNALVQAGIH
[10]
  Population: 0.00463% and 0.00432% and 0.00402%

## NQWRNSLTAAANLSGR
[11]
  Rank (after): 176
[12]
  Rank (before): 3342

## YAFTGHLHRYLMRTKT
[9]
  Population: 0.00338%
[11]
  Rank (after): 114
[12]
  Rank (before): 186

## RKFWAYLFQALANKGS
[5]
  P8_MAL Rank (after): 551
[6]
  P8_MAL Rank (before): 2253

## HQAFWNRLWAKLKPP
[7]
  P3_MAL Rank (after): 755
[8]
  P3_MAL Rank (before): 2873

## DSKLKKGESIAPALLR
[1]
  P8_MAL Rank (after): 215
[2]
  P8_MAL Rank (before): 1986

## AFFLAQLKSVLGNPTT
[13]
  P8_MAL Rank (after): 670
[14]
  P8_MAL Rank (before): 1579

## RKGDLISDELLIAIEE
[5]
  P8_MAL Rank (after): 575
[6]
  P8_MAL Rank (before): 2300

## YNLISQLYEALHLNRI
[13]
  P3_MAL Rank (after): 645
[14]
  P3_MAL Rank (before): 1587

## RRLKWKDALHQFHSWV
[11]
  Rank (after): 124
[12]
  Rank (before): 594

## TFLGHLYNALLQPGIH
[3]
  Rank (after): 181
[4]
  Rank (before): 2616

## YFLHFLLFSRPETVYI
[10]
  Population: 0.00309%

## AFFWEQMRTVLGKPTT
[13]
  P8_MAL Rank (after): 612
[14]
  P8_MAL Rank (before): 1710

## LFFWEKLRQLLRRAAS
[3]
  Rank (after): 387
[4]
  Rank (before): 2124

## WFYERLVSLLLRDTKV
[10]
  Population: 0.00309%

## CFLFTVRSAIYAMNPA
[3]
  Rank (after): 445
[4]
  Rank (before): 1109

## WFYERLVCLLLRDSKV
[3]
  Rank (after): 458
[4]
  Rank (before): 1279

## PFFWEHLRHLLRSHTL
[3]
  Rank (after): 480
[4]
  Rank (before): 2325

## YAFTGHLRRYLVQRGV
[9]
  Population: 0.00338%

## RNSVAYLFQALADKGI
[1]
  P8_MAL Rank (after): 270
[2]
  P8_MAL Rank (before): 2247

## LKVKLASGAGKSGQT
[13]
  P3_MAL Rank (after): 619
[14]
  P3_MAL Rank (before): 2301

## LFFCESLKQLLRSDGH
[1]
  P8_MAL Rank (after): 244
[2]
  P8_MAL Rank (before): 2057

## AFFWAQLQSMLGNPTM
[3]
  Rank (after): 138
[4]
  Rank (before): 1605

## WFYERLVSLILRIPK
[3]
  Rank (after): 188
[4]
  Rank (before): 742

## TFLAICIMRWCRRAF
[3]
  Rank (after): 99
[4]
  Rank (before): 718

## YAFTGHLHRYLVQCGV
[9]
  Population: 0.00338%

## AFFWAICIMRWCRRAF
[7]
  P8_MAL Rank (after): 708
[8]
  P8_MAL Rank (before): 1656

## ESILDQLRRRSQSIAN
[13]
  P3_MAL Rank (after): 591
[14]
  P3_MAL Rank (before): 2042

## QLIQQLIELHLDQLHL
[13]
  P8_MAL Rank (after): 653
[14]
  P8_MAL Rank (before): 2349

## RLRKWKGALHHFLSWG
[7]
  P3_MAL Rank (after): 728
[8]
  P3_MAL Rank (before): 2544

## ESGKLASGAGKSGQT
[13]
  P3_MAL Rank (after): 598
[14]
  P3_MAL Rank (before): 2037

## AFFWAQLKSVLGNPTM
[10]
  Population: 0.00371% and 0.00278%

## AFFCTQLKSVLGNPTI
[13]
  P8_MAL Rank (after): 587
[14]
  P8_MAL Rank (before): 1588

## YAFTGHLHRYLVQRFA
[5]
  P3_MAL Rank (after): 514
[6]
  P3_MAL Rank (before): 1393

## AFFCAQQKSVLRNPTK
[5]
  P8_MAL Rank (after): 516
[6]
  P8_MAL Rank (before): 1725

## RLLKWKEALHQFHSSL
[11]
  Rank (after): 172
[12]
  Rank (before): 2515

## LFLWESLKHLLRSDSL
[7]
  P8_MAL Rank (after): 719
[8]
  P8_MAL Rank (before): 2147

## NQCRNALTPAAKLSSL
[5]
  P3_MAL Rank (after): 538
[6]
  P3_MAL Rank (before): 3423

## YAFTGHLQRYLLQRGV
[11]
  Rank (after): 188
[12]
  Rank (before): 1460

## AFLYTFLINDPSDQF
[1]
  P8_MAL Rank (after): 214
[2]
  P8_MAL Rank (before): 1836

## MSHLYQGLKNRGI
[9]
  Population: 0.00413%

## KLLWVKFKFFLPSLSR
[1]
  P8_MAL Rank (after): 211
[2]
  P8_MAL Rank (before): 2730

## KMKYWKDALYDASNLS
[5]
  P3_MAL Rank (after): 510
[6]
  P3_MAL Rank (before): 3703

## SSFREGLWRLLELIKK
[9]
  Population: 0.00488%

## AFFGEQLVTGLAKRSS
[5]
  P8_MAL Rank (after): 568
[6]
  P8_MAL Rank (before): 1742

## NQCRNALTAAANLKGW
[11]
  Rank (after): 146
[12]
  Rank (before): 3327

## WFLFTFLINLTHPTNF
[5]
  P8_MAL Rank (after): 523
[6]
  P8_MAL Rank (before): 1314

## LFFWGSLKQLLRNDGR
[3]
  Rank (after): 128
[4]
  Rank (before): 2061

## SSWWILKELQEILNYQ
[1]
  P8_MAL Rank (after): 279
[2]
  P8_MAL Rank (before): 2529

## KERLHQWKLALTQAANLSGW
[9]
  Population: 0.00376%
[11]
  Rank (after): 111
[12]
  Rank (before): 178

## WFLSAFLIPMAQLADT
[3]
  Rank (after): 412
[4]
  Rank (before): 1352

## AFFLAQLKSVMGNPTM
[13]
  P8_MAL Rank (after): 645
[14]
  P8_MAL Rank (before): 1580

## PFFWAQLKSLLRNPTS
[5]
  P8_MAL Rank (after): 574
[6]
  P8_MAL Rank (before): 2320

## DSLFWDRLLYSLHVTE
[3]
  Rank (after): 157
[4]
  Rank (before): 877

## SLRNKLLSHLLEEFKS
[11]
  Rank (after): 418
[12]
  Rank (before): 3066

## RGFMSHLRHPLQAKDH
[13]
  P3_MAL Rank (after): 616
[14]
  P3_MAL Rank (before): 2412

## SSLREVLWRLLELSKK
[11]
  Rank (after): 178
[12]
  Rank (before): 3204

## GFLYQAFAREGLQIFM
[11]
  Rank (after): 164
[12]
  Rank (before): 1739

## YAFTGHFHCCKLQRGV
[13]
  P3_MAL Rank (after): 666
[14]
  P3_MAL Rank (before): 1358

## NQWRNELTAAANLNGW
[5]
  P3_MAL Rank (after): 508
[6]
  P3_MAL Rank (before): 3405

## RNFVAYLFQALANTSI
[13]
  P8_MAL Rank (after): 585
[14]
  P8_MAL Rank (before): 2212

## ARFKDMIINKWRTALT
[1]
  P8_MAL Rank (after): 195
[2]
  P8_MAL Rank (before): 869

## HLLKKPRNKRISPFIA
[7]
  P3_MAL Rank (after): 692
[8]
  P3_MAL Rank (before): 2803

## RLLKWKKRCISFIAG
[11]
  Rank (after): 400
[12]
  Rank (before): 2492

## GCYERLVSLILRDTKV
[3]
  Rank (after): 121
[4]
  Rank (before): 1571

## DWFLSKLSQHSLKLEK
[7]
  P3_MAL Rank (after): 718
[8]
  P3_MAL Rank (before): 1894

## AFLYTFLISLTHPTNF
[10]
  Population: 0.00402%

## AFCWAQLKSVLGNPTR
[3]
  Rank (after): 123
[4]
  Rank (before): 1781

## WFYERLLSLILRDTKV
[10]
  Population: 0.00278%

## ALPYTFLINLTHPTTF
[5]
  P8_MAL Rank (after): 503
[6]
  P8_MAL Rank (before): 1961

## ESILNQLRHHLQAKDH
[11]
  Rank (after): 170
[12]
  Rank (before): 544

## PNLRTKVLDYLLRTKT
[11]
  Rank (after): 406
[12]
  Rank (before): 2702
